From publication PMC7297445, “Pharmacokinetic/Pharmacodynamic Determination and Preclinical Pharmacokinetics of the β-Lactamase Inhibitor ETX1317 and Its Orally Available Prodrug ETX0282” (ACS Infectious Diseases, 2020)

Key:
Plasma protein binding = format: in vitro ADME, human
Experimental: (§1) Plasma protein binding was determined by rapid equilibrium dialysis. Plasma was freshly prepared from blood samples drawn in to EDTA (anticoagulant) containing tubes. Plasma was prepared using a table-top centrifuge and spun per instruction of the tube manufacturer and specifications (Beckton, Dickinson and Company, Franklin Lakes, NJ) and placed on ice prior to use.
(§2) Pooled plasma samples were centrifuged at 2000 rpm (approximately 1400g) for 15 min at 4 °C to remove debris. Approximately 90% of the clear supernatant fraction was transferred to a separate tube. Samples (500 μL) were then spiked with a 100× stock solution 100 μM, 0.5 mM, and 10 mM ETX1317 in DMSO respectively for 1, 5, and 100 μM final concentrations, transferred to the top of the filter chambers, and allowed to equilibrate for 15 min prior to centrifugation. The filtrate tubes were centrifuged at 14000g for 15 min at 4 °C. Next, 50 μL of the filtrate was precipitated with 300 μL of acetonitrile containing 250 ng/mL of carbutamide as the internal standard and the samples were analyzed by LC/MS/MS analysis.

Excretion into the bile = conditions: in vivo
Experimental: (§3) Based upon the non-clinical PK data, a range of 60–80% bioavailability and a moderate absorption rate of 0.5–1.0 h^–1 have been considered for humans. In consideration of these predicted parameters, mean percent fT > CT of 1 μg/mL (2× MIC of 0.5 μg/mL) estimates for a 500 mg ETX1317 equiv q12h dose of ETX0282 are summarized in Table S3.

K. pneumoniae ARC4420 = assay: MIC, broth microdilution (CLSI); format: cell-based; conditions: Klebsiella pneumoniae, combination at 1:2 ratio cefpodoxime:ETX1317, MIC of CPD
Experimental: (§4) MICs were determined utilizing a 1:2 ratio of cefpodoxime:ETX1317. […] The isolates utilized in the present study (Table 1) were broadly insensitive to CPD, presumably due to the presence of ESBLs and carbapenemases expressed in these strains. The addition of ETX1317 restored CPD activity to ≤1 μg/mL across all the tested isolates.
(§5) The MIC of each isolate was determined using the broth microdilution method following CLSI guidelines of document M07-A7 (CLSI M07-A7).

K. pneumoniae ARC4488 = assay: MIC, broth microdilution (CLSI); format: cell-based; conditions: Klebsiella pneumoniae, ARC4488; combination at 1:2 ratio cefpodoxime:ETX1317, MIC of CPD
Experimental: as §4, §5

E. coli NMC101 = assay: MIC, broth microdilution (CLSI); format: cell-based; conditions: Escherichia coli, combination at 1:2 ratio cefpodoxime:ETX1317, MIC of CPD
Experimental: as §4, §5

K. pneumoniae ARC5118 = assay: MIC, broth microdilution (CLSI); format: cell-based; conditions: Klebsiella pneumoniae, ARC5118; combination at 1:2 ratio cefpodoxime:ETX1317, MIC of CPD
Experimental: as §4, §5

E. coli ARC2687 = assay: MIC, broth microdilution (CLSI); format: cell-based; conditions: Escherichia coli, ARC2687; combination at 1:2 ratio cefpodoxime:ETX1317, MIC of CPD
Experimental: as §4, §5

K. pneumoniae ARC4486 = assay: MIC, broth microdilution (CLSI); format: cell-based; conditions: Klebsiella pneumoniae, combination at 1:2 ratio cefpodoxime:ETX1317, MIC of CPD
Experimental: as §4, §5

E. coli ARC4419 = assay: MIC, broth microdilution (CLSI); format: cell-based; conditions: Escherichia coli, combination at 1:2 ratio cefpodoxime:ETX1317, MIC of CPD
Experimental: as §4, §5

[1] = Mouse oral pharmacokinetics (satellite infected animals); format: in vivo
[2] = Plasma protein binding across species; format: in vitro ADME, monkeys, humans, mice, rats, and dogs; conditions: monkey, human, mouse, rat, dog, range across species, 1 to 100 μM
Experimental: Intravenous and oral pharmacokinetics of ETX1317 and ETX0282 in preclinical species are summarized in Table 7 and Table S1, respectively. Time vs concentration profiles are depicted graphically in Figure S1.
as §1, §2

[3] = Stability in liver microsomes; format: in vitro ADME
Experimental: as §3

[4] = unbound ETX1317 after oral ETX0282 10 mg/kg
[5] = unbound ETX1317 after oral ETX0282 50 mg/kg
[6] = unbound ETX1317 after oral ETX0282 200 mg/kg
[7] = unbound ETX1317 after oral ETX0282 400 mg/kg

CC1=C[C@@H](C(N)=O)N2C[C@@H]1N(O[C@H](F)C(=O)O)C2=O [ETX1317]
Proportion unbound (Plasma protein binding; 1 µM): 82%
Proportion unbound (Plasma protein binding; 5 µM): 99%
Proportion unbound (Plasma protein binding; 100 µM): 80%
excretion into the bile (Excretion into the bile): minimal excretion
MIC (K. pneumoniae ARC4420): 16 µg/mL
MIC (K. pneumoniae ARC4488): 0.5 µg/mL
MIC (E. coli NMC101): 1 µg/mL
MIC (K. pneumoniae ARC5118): 32 µg/mL
MIC (E. coli ARC2687): 0.5 µg/mL
MIC (K. pneumoniae ARC4486): 32 µg/mL
MIC (E. coli ARC4419): 0.25 µg/mL
half-life ([1]; mouse, in vivo, mice, once formed from ETX0282): 1.3 h
%Time > f[CT] 0.25 μg/mL ([1]; oral ETX0282 10 mg/kg): 47%
%Time > f[CT] 0.5 μg/mL ([1]; oral ETX0282 10 mg/kg): 25%
%Time > f[CT] 1.0 μg/mL ([1]; oral ETX0282 10 mg/kg): 12%
%Time > f[CT] 2.0 μg/mL ([1]; oral ETX0282 10 mg/kg): 8%
%Time > f[CT] 0.25 μg/mL ([1]; oral ETX0282 50 mg/kg): 88%
%Time > f[CT] 0.5 μg/mL ([1]; oral ETX0282 50 mg/kg): 50%
%Time > f[CT] 1.0 μg/mL ([1]; oral ETX0282 50 mg/kg): 29%
%Time > f[CT] 2.0 μg/mL ([1]; oral ETX0282 50 mg/kg): 28%
%Time > f[CT] 0.25 μg/mL ([1]; oral ETX0282 200 mg/kg): 100%
%Time > f[CT] 0.5 μg/mL ([1]; oral ETX0282 200 mg/kg): 100%
%Time > f[CT] 1.0 μg/mL ([1]; oral ETX0282 200 mg/kg): 58%
%Time > f[CT] 2.0 μg/mL ([1]; oral ETX0282 200 mg/kg): 35%
%Time > f[CT] 0.25 μg/mL ([1]; oral ETX0282 400 mg/kg): 100%
%Time > f[CT] 0.5 μg/mL ([1]; oral ETX0282 400 mg/kg): 100%
%Time > f[CT] 1.0 μg/mL ([1]; oral ETX0282 400 mg/kg): 75%
%Time > f[CT] 2.0 μg/mL ([1]; oral ETX0282 400 mg/kg): 38%
fAUClast [1, 4]: 4700 ng·h/mL
fCmax [1, 4]: 3.9 µg/mL
fAUClast [1, 5]: 23000 ng·h/mL
fCmax [1, 5]: 21 µg/mL
fAUClast [1, 6]: 61000 ng·h/mL
fCmax [1, 6]: 57 µg/mL
fAUClast [1, 7]: 73000 ng·h/mL
fCmax [1, 7]: 90 µg/mL
fraction unbound at 15 min [2]: 0.77 to 1
stability in liver microsomes [3]: Good stability
